Like-named read-outs stand apart in the source and are kept apart here.
What was measured:
[1] = system: corneal neovasculature; assay type: in vivo, New Zealand albino rabbit
Source text: The corneal and limbal epithelia, along with the conjunctival epithelium 2-3 mm beyond the limbus, were removed from New Zealand albino rabbits by a combination of surgical scraping and n-heptanol debridement. The denuded corneal surfaces were then healed by the remaining conjunctival epithelium, of which 65% contained extensive neovascularization. From this group, 16 corneas with neovascularization persistent for about 20 months were subjected to photothrombotic treatment.
Isotonic saline solution was used as a control solution.
After anesthesia with intramuscular injection of xylazine (10 mg/kg bw) and ketamine (10 mg/kg bw), the rabbits were injected intravenously with either 2.5 ml of isotonic saline solution or rose bengal saline solution at a dosage of 40 mg/kg bw. Irradiation of corneal vessels was carried out with an argon ion laser (Model 95, Cooper LaserSonics, Fremont, Calif.) operated at 514.5 nm, as described by Mendelsohn et al. (Arch. Opthalmol., 105:983-988, 1987). The beam focusing apparatus was mounted in an X-Y positioning device attached to a rotary turntable, both with micrometer precision (Daedal, Inc., Harrison City, Pa.). With this apparatus, beam positioning stability and reproducibility of incident intensity were improved because irradiations were administered during the open cycle of the mechanical shutter. The incident power level was set at 200 mW; allowing for reflection losses in the fiber optic focusing system, the incident power was reduced to 130 mW. At the focal point, the laser beam was 63 μm in diameter. Each irradiation was 0.2 second in pulse duration. During the entire procedure, the corneas were continuously rinsed with a balanced salt solution delivered through a peristatic pump and the temperature of the solution was maintained at 37° C. with a water bath. After laser irradiation, topical antibiotics and steroids were applied for two days.
Routine external photography and corneal fluorescein angiography were performed to document occlusion of the corneal blood vessels and the duration of their occlusion. Angiograms were taken with a ceiling-mounted Zeiss surgical photoscope after injection of 1 ml of 10 mg/ml fluorescein solution. Baseline angiography was performed two or three days before laser irradiation to avoid possible photosensitizing effects from the fluorescein dye used for angiography. After photothrombotic treatment, angiograms were taken on scheduled dates in order to monitor the duration of the occlusive effect. Late phase (5 minutes after injection) fluorescein angiograms were used for comparison.
Various dosages of rose bengal solution were used to investigate the efficacy of photothrombosis.

[2] = system: conjunctival epithelium on vascularized corneas; assay: Epithelial differentiation on photothrombosed corneas (goblet cells, cytology, histology); assay type: in vivo, New Zealand albino rabbit
Method: In order to study the goblet cell density on the vascularized corneas before and after photothrombosis, corneal flat-mounts were prepared and stained according to usual methods (Tseng et al., Invest. Opthalmol. Vis. Sci., 25:1168-76, 1984). The pattern of goblet cell disappearance was then analyzed and specifically correlated with the treated area.
(§1) The epithelial phenotype of the control and treated corneas was then studied by impression cytology (Tseng, Ophthalmology, 92:728-33, 1985) and routine histology using hematoxylin and PAS. In addition, immunofluorescent stainings of the frozen sections using a previously developed anti-rabbit ocular mucin monoclonal antibody [anti-ROM] was performed to study mucin expression.

[3] = rat, in vivo; cited from earlier work
[4] = Absorption / excitation of the dye in tissue; assay type: physicochemical
Source text: Examples of lasers that can be used to provide the light beam include the He-Ne laser, the argon ion laser and the argon-pumped dye laser. The 543.5 nm He-Ne laser, for example, can excite rose bengal with an efficiency of 58% of the maximum. (The wavelength at which excitation efficiency for rose bengal is maximal in tissue occurs at 562 nm.) Because the maximum theoretical power output is only 4 or 5 milliwatts, the 543.5 nm He-Ne laser is not used in clinical applications at this time. However, this laser is expected to be particularly useful in permanently occluding relatively low-flow arteries, smaller than about 200 μm, such as those in the choroid of the eye.
The argon ion laser is the most common clinical laser used at this time. Although the commonly used argon 514.5 nm line is only 36% efficient with respect to the maximum of rose bengal absorption, this laser is much more powerful (by at least a factor of 1000) and versatile than the He-Ne laser.
The absorption maximum of erythrosin B in endothelial tissue is at 536 nm, which is closer than that of rose bengal to the standard 514.5 nm wavelength of the argon ion laser.

[5] = system: rabbit ocular mucin; assay: Immunofluorescence of mucin expression with anti-ROM antibody; assay type: in vivo
Method: as §1
To further confirm the transition of epithelial differentiation, a monoclonal antibody against rabbit ocular mucin [anti-ROM] was used to examine the expression of mucin, the major product of goblet cells.

Compound: O=C([O-])c1c(Cl)c(Cl)c(Cl)c(Cl)c1-c1c2cc(I)c(=O)c(I)c-2oc2c(I)c([O-])c(I)cc12.[Na+].[Na+] [rose bengal]
- Total Laser Shots to Occlude each Vessel ([1]; 4 mg/kg BW i.v., duration 0-10 min, means ± s.d.): 33 ± 8
- Total Laser Shots to Occlude each Vessel ([1]; 4 mg/kg BW i.v., duration 10-20 min, means ± s.d.): 53 ± 8
- Total Laser Shots to Occlude each Vessel ([1]; 4 mg/kg BW i.v., duration 20-30 min, means ± s.d.): 81 ± 11
- Total Laser Shots to Occlude each Vessel ([1]; 4 mg/kg BW i.v., duration 30-40 min): > 100
- Total Laser Shots to Occlude each Vessel ([1]; 4 mg/kg BW i.v., duration 40-50 min): N.O.
- Total Laser Shots to Occlude each Vessel ([1]; 4 mg/kg BW i.v., duration 50-60 min): N.O.
- shots required to occlude blood vessels ([1]; 4 mg/kg bw): more than 100 shots
- time window in which vessels could still be occluded ([1]; 4 mg/kg bw, sufficient shots): ≤ 30 min
- Total Laser Shots to Occlude each Vessel ([1]; 8 mg/kg BW i.v., duration 0-10 min, means ± s.d.): 13 ± 4
- Total Laser Shots to Occlude each Vessel ([1]; 8 mg/kg BW i.v., duration 10-20 min, means ± s.d.): 19 ± 1
- Total Laser Shots to Occlude each Vessel ([1]; 8 mg/kg BW i.v., duration 20-30 min, means ± s.d.): 30 ± 4
- Total Laser Shots to Occlude each Vessel ([1]; 8 mg/kg BW i.v., duration 30-40 min, means ± s.d.): 51 ± 7
- Total Laser Shots to Occlude each Vessel ([1]; 8 mg/kg BW i.v., duration 40-50 min, means ± s.d.): 65 ± 6
- Total Laser Shots to Occlude each Vessel ([1]; 8 mg/kg BW i.v., duration 50-60 min, means ± s.d.): 85 ± 10
- shots per target vessel required for occlusion ([1]; 8 mg/kg bw or higher): < 20 shots
- Total Laser Shots to Occlude each Vessel ([1]; 16 mg/kg BW i.v., duration 0-10 min, means ± s.d.): 8 ± 3
- Total Laser Shots to Occlude each Vessel ([1]; 16 mg/kg BW i.v., duration 10-20 min, means ± s.d.): 9 ± 2
- Total Laser Shots to Occlude each Vessel ([1]; 16 mg/kg BW i.v., duration 20-30 min, means ± s.d.): 10 ± 2
- Total Laser Shots to Occlude each Vessel ([1]; 16 mg/kg BW i.v., duration 30-40 min, means ± s.d.): 13 ± 3
- Total Laser Shots to Occlude each Vessel ([1]; 16 mg/kg BW i.v., duration 40-50 min, means ± s.d.): 20 ± 4
- Total Laser Shots to Occlude each Vessel ([1]; 16 mg/kg BW i.v., duration 50-60 min, means ± s.d.): 32 ± 5
- Total Laser Shots to Occlude each Vessel ([1]; 40 mg/kg BW i.v., duration 0-10 min, means ± s.d.): 5 ± 1
- Total Laser Shots to Occlude each Vessel ([1]; 40 mg/kg BW i.v., duration 10-20 min, means ± s.d.): 5 ± 1
- Total Laser Shots to Occlude each Vessel ([1]; 40 mg/kg BW i.v., duration 20-30 min, means ± s.d.): 6 ± 1
- Total Laser Shots to Occlude each Vessel ([1]; 40 mg/kg BW i.v., duration 30-40 min, means ± s.d.): 8 ± 2
- Total Laser Shots to Occlude each Vessel ([1]; 40 mg/kg BW i.v., duration 40-50 min, means ± s.d.): 10 ± 3
- Total Laser Shots to Occlude each Vessel ([1]; 40 mg/kg BW i.v., duration 50-60 min, means ± s.d.): 15 ± 4
- corneal fluorescein angiography ([1]; after photothrombosis): completely occluded without any dye leakage
- recanalization / new vessel formation ([1]; four-month study period): without recanalization or stimulation of new vessel formation elsewhere
- involution of occluded corneal vessels ([1]; one week after irradiation): gradually involuted
- conjunctival side effect ([1]; rabbit, in vivo, 40 mg/kg): edematous and slightly pinkish in color
- goblet cells on the cornea ([2]; four weeks): no goblet cells were noted
- histology of epithelium ([2]; four weeks): stratified cornea-like epithelium
- goblet cell density, cytology ([2]; one week): decreased goblet cell density
- epithelial N/C ratio ([2]; one week, impression cytology): slight increase
- goblet cell density ([2]; treated areas, four days): remarkably decreased
- half-life in blood [3]: two
- excitation efficiency relative to maximum of absorption ([4]; 514.5 nm argon line): 36%
- excitation efficiency relative to maximum ([4]; 543.5 nm He-Ne laser): 58%
- gain in efficiency of endothelial photosensitization, factor ([4]; argon-pumped dye laser (562 nm) over 514.5 nm argon line): ≥ 3
- wavelength of maximal excitation efficiency / absorption maximum in tissue ([4]; in tissue): 562 nm
- mucin in epithelium of occluded corneas ([5]; four weeks): complete absence
- expression of mucin antigen ([5]; with time after vessel occlusion): diminish gradually with time
